Measured values as given in patent US20250339409A1, “USES OF PAN BET INHIBITORS” (VYNE THERAPEUTICS INC., priority 2021, published 2025).
Converted amounts (≈) assume the structure as drawn. Like-named read-outs stand apart in the source and are kept apart here.

Key:
[1] = Solubility of BETi1 in solutions of hydroxypropyl-β-cyclodextrin in saline (HPLC); type: physicochemical; conditions: for solubility: aqueous with cosolvent or surfactant or cyclodextrin, thermodynamic from solid, 25° C., HPLC, read-out: Approximate solubility
Method: Saline is prepared by dissolving 0.9% of NaCl in water. 10% w/w or 20% w/w of hydroxypropyl-β-cyclodextrin (2HP-β-CD) is added to saline, sonicated for 1 minute, and mixed using magnetic stirrer until complete dissolution of 2HP-β-CD and a clear solution is obtained. Sufficient BETi1 is added to each 2HP-β-CD solution such that not all BETi1 is completely dissolved. The mixture is stirred with a magnetic stirrer at ambient conditions overnight (for at least 16 hours). The saturated samples, still containing solid phase, are filtered through a 0.45 μm filter and the filtrate is analyzed by HPLC.

[2] = tested on: IL-1β, IL-6, IL-8, IL-17, IL-18, IL-23, IL-36 and TNF-α; assay: Serum pro-inflammatory cytokine assays (Luminex, ELISA) in the imiquimod model; type: in vivo, female Balb/c mice; conditions: imiquimod-induced mice
Method: Immediately after the TEWL measurements on D14, mice are maintained under gas anesthesia and blood is taken from each mouse by intracardiac puncture. Blood samples are placed at +4° C. for 20 to 30 minutes before being centrifuged at 3000 rpm and +4° C. for 20 minutes. Serum is collected, frozen at −20° C. and then stored at −80° C. awaiting serum biomarkers assays (cytokines).
Assays of the 8 pro-inflammatory cytokines IL-1β, IL-6, IL-8, IL-17, IL-18, IL-23, IL-36 and TNF-α associated with psoriasis and other inflammatory diseases is performed on the isolated and frozen serum samples from blood collected at the end of the experiment on mice of the 7 experimental groups 1 to 7.
The Luminex® technique using magnetic beads technology and ProcartaPlex® immunoassay kit from the Invitrogen division of Thermofisher Scientific is used to perform the assays of the 7 multiplexed cytokines IL-1β, IL-6, IL-8, IL-17, IL-18, IL-23, and TNF-α. Analyte-specific antibodies for the 7 cytokines is pre-coated onto color-coded magnetic microparticles. Microparticles, standards and serum samples (non-diluted as recommended in the instruction manual) is pipetted into wells and the immobilized antibodies bind the analytes of interest. After washing away any unbound substances, a biotinylated antibody cocktail specific to the analytes of interest is added to each well. Following a wash to remove any unbound biotinylated antibody, streptavidin-phycoerythrin conjugate (Streptavidin-PE), which binds to the biotinylated antibody, is added to each well. A final wash removes unbound Streptavidin-PE and the microparticles is resuspended in buffer and read using a Bio-Rad Bio-Plex 200 Analyzer. A magnet in the analyzer captures and holds the superparamagnetic microparticles in a monolayer. Two spectrally distinct Light Emitting Diodes (LED) illuminate the microparticles. One LED identifies the analyte detected and the second LED determines the magnitude of the PE-derived signal, which is in direct proportion to the amount of the analyte bound. Each well is imaged with a Charged Coupled Device (CCD) camera. A representative standard curve from the 7 cytokines is diluted in a serial fourfold steps in specific standard buffer. Each standard, control and serum sample is analyzed in duplicate.
Quantitative sandwich Enzyme-Linked ImmunoSorbent Assay (ELISA) using mouse IL-36 immunoassay kit from the Invitrogen division of Thermofisher Scientific is used to perform the assay. A purified anti-mouse polyclonal antibody against the specific antigen IL-36 pre-coated onto a microplate is used. Standard, control, and serum samples, as recommended in the instruction manual, are pipetted into the wells and any mouse specific antigen present is bound by the immobilized antibody. After washing away any unbound substances, a biotin-conjugated anti-mouse IL-36 antibody is incubated in each well. Then, after washing, streptavidin-Horseradish Peroxidase (HRP) complex is added to the wells, allowing non-covalent biological interaction with biotin. Following several washes to remove any unbound complex, a TetraMethylBenzidine (TMB) substrate solution is added to the wells. The enzyme reaction yields a blue product that turns yellow when the stop solution is added. The intensity of the colour is measured at 450 nm and 570 nm using a microplate reader. The values of 570 nm are subtracted from those of 450 nm and data is in proportion to the amount of […] bound in the initial step. The serum samples values are then read off the standard curves. A representative standard curve from IL-36 is diluted in a serial two folds step in assay buffer. Each standard, control and serum sample is analyzed in duplicate.

[3] = tested on: anti collagen antibodies induced arthritis (ACAIA); assay: ACAIA mice: hot plate withdrawal latency; type: in vivo, Balb/c mice
Method: On days 0, 5 and 11 animals are placed on hot plate apparatus (53±1° C.) and the time until the first response is observed and recorded.

With `Cn1cc(-c2cccc(O)c2Oc2ccccc2)c2cc[nH]c2c1=O` [BETi1] the “amount of BETi1 fully dissolved” value ([1]; 10% HP-b-CD in saline, room temperature) was “below 4.3 mg/mL”, the solubility ([1]; 10% w/w hydroxypropyl-β-cyclodextrin in saline, 2HP-β-CD - Saline (10%:90%)) was 4340 µg/mL (≈ 13.1 mM) and the solubility ([1]; 20% w/w hydroxypropyl-β-cyclodextrin in saline, 2HP-β-CD - Saline (20%:80%)) was 8990 µg/mL (≈ 27 mM). The “Inflammatory Biomarkers, Mean score values, IL-1β” value (“Inflammatory Biomarkers … IL-1β” for short) ([2]; D14, listed as BETi1 0.001%) was 49.00 pg/mL, the “Inflammatory Biomarkers, Mean score values, IL-6” value (“Inflammatory Biomarkers … IL-6” for short) ([2]; D14, listed as BETi1 0.001%) was 123.25 pg/mL and the “Inflammatory Biomarkers, Mean score values, IL-8” value (“Inflammatory Biomarkers … IL-8” below) ([2]; D14, listed as BETi1 0.001%) was 41.82 pg/mL. The “Inflammatory Biomarkers, Mean score values, IL-17” value (shortened to “Inflammatory Biomarkers … IL-17”) ([2]; D14, listed as BETi1 0.001%) was 74.77 pg/mL, the “Inflammatory Biomarkers, Mean score values, IL-18” value (from here on “Inflammatory Biomarkers … IL-18”) ([2]; D14, listed as BETi1 0.001%) was 241.77 pg/mL and the “Inflammatory Biomarkers, Mean score values, IL-23” value (“Inflammatory Biomarkers … IL-23” for short) ([2]; D14, listed as BETi1 0.001%) was 51.02 pg/mL. For the same molecule, the “Inflammatory Biomarkers, Mean score values, IL-36” value (“Inflammatory Biomarkers … IL-36” for short) ([2]; D14, listed as BETi1 0.001%) was 65.63 pg/mL, the “Inflammatory Biomarkers, Mean score values, TNF-α” value (“Inflammatory Biomarkers … TNF-α” for short) ([2]; D14, listed as BETi1 0.001%) was 36.20 pg/mL and the “Inflammatory Biomarkers … IL-1β” value ([2]; D14, listed as BETi1 0.1%) was 24.31 pg/mL. For the same molecule, the “Inflammatory Biomarkers … IL-6” value ([2]; D14, listed as BETi1 0.1%) was 56.29 pg/mL, the “Inflammatory Biomarkers … IL-8” value ([2]; D14, listed as BETi1 0.1%) was 21.40 pg/mL and the “Inflammatory Biomarkers … IL-17” value ([2]; D14, listed as BETi1 0.1%) was 25.08 pg/mL. The “Inflammatory Biomarkers … IL-18” value ([2]; D14, listed as BETi1 0.1%) was 138.90 pg/mL, the “Inflammatory Biomarkers … IL-23” value ([2]; D14, listed as BETi1 0.1%) was 20.66 pg/mL and the “Inflammatory Biomarkers … IL-36” value ([2]; D14, listed as BETi1 0.1%) was 26.91 pg/mL. The “Inflammatory Biomarkers … TNF-α” value ([2]; D14, listed as BETi1 0.1%) was 18.27 pg/mL, the “Inflammatory Biomarkers … IL-1β” value ([2]; D14, listed as BETi1 1.0%) was 39.46 pg/mL and the “Inflammatory Biomarkers … IL-6” value ([2]; D14, listed as BETi1 1.0%) was 96.09 pg/mL. The “Inflammatory Biomarkers … IL-8” value ([2]; D14, listed as BETi1 1.0%) was 23.50 pg/mL, the “Inflammatory Biomarkers … IL-17” value ([2]; D14, listed as BETi1 1.0%) was 54.13 pg/mL and the “Inflammatory Biomarkers … IL-18” value ([2]; D14, listed as BETi1 1.0%) was 202.85 pg/mL. For the same molecule, the “Inflammatory Biomarkers … IL-23” value ([2]; D14, listed as BETi1 1.0%) was 33.19 pg/mL, the “Inflammatory Biomarkers … IL-36” value ([2]; D14, listed as BETi1 1.0%) was 52.58 pg/mL and the “Inflammatory Biomarkers … TNF-α” value ([2]; D14, listed as BETi1 1.0%) was 25.05 pg/mL. For the same molecule, the “Inflammatory Biomarkers … IL-1β” value ([2]; D14, listed as BETi10.01%) was 32.62 pg/mL, the “Inflammatory Biomarkers … IL-6” value ([2]; D14, listed as BETi10.01%) was 74.31 pg/mL and the “Inflammatory Biomarkers … IL-8” value ([2]; D14, listed as BETi10.01%) was 30.82 pg/mL. The “Inflammatory Biomarkers … IL-17” value ([2]; D14, listed as BETi10.01%) was 33.44 pg/mL, the “Inflammatory Biomarkers … IL-18” value ([2]; D14, listed as BETi10.01%) was 146.86 pg/mL and the “Inflammatory Biomarkers … IL-23” value ([2]; D14, listed as BETi10.01%) was 30.04 pg/mL. The “Inflammatory Biomarkers … IL-36” value ([2]; D14, listed as BETi10.01%) was 30.38 pg/mL, the “Inflammatory Biomarkers … TNF-α” value ([2]; D14, listed as BETi10.01%) was 22.16 pg/mL and the “Hot Plate Change in withdrawal latency (Avg.)” value (“Hot Plate Change” for short) ([3]; 0.01 mg/kg IA, Baseline) was 11.57 s. For the same molecule, the “Hot Plate Change” value ([3]; 0.01 mg/kg IA, Day 5) was 11.86 s, the “Hot Plate Change” value ([3]; 0.01 mg/kg IA, Day 11) was 12.00 s and the “Hot Plate Change” value ([3]; 0.1 mg/kg IA, Baseline) was 11.14 s. For the same molecule, the “Hot Plate Change” value ([3]; 0.1 mg/kg IA, Day 5) was 10.43 s, the “Hot Plate Change” value ([3]; 0.1 mg/kg IA, Day 11) was 9.57 s and the “Hot Plate Change” value ([3]; 1 mg/kg IA, Baseline) was 11.71 s. For the same molecule, the “Hot Plate Change” value ([3]; 1 mg/kg IA, Day 5) was 11.57 s, the “Hot Plate Change” value ([3]; 1 mg/kg IA, Day 11) was 11.29 s and the “Hot Plate Change” value ([3]; 10 mg/kg IA, Baseline) was 10.57 s. For the same molecule, the “Hot Plate Change” value ([3]; 10 mg/kg IA, Day 5) was 12.00 s and the “Hot Plate Change” value ([3]; 10 mg/kg IA, Day 11) was 11.00 s.
